Assay results published in patent US11351206B2, “Probiotic sports nutrition compositions” (Ganeden Biotech, Inc., priority 2011, dated 2022).

System: various bacterial pathogens
Test: Zone of inhibition assay, positive control
Assay type: cell-based
Conditions: 1 μl volume
From the text: The probiotic organisms described herein, e.g., Bacillus coagulans strain GBI-30 or GANEDEN BC-30™, ATCC Designation Number PTA-6086, promote digestive and oral health and support the immune system. The ability of Bacillus coagulans to inhibit various bacterial pathogens was quantitatively ascertained by use of an in vitro assay. This assay is part of a standardized bacterial pathogen screen (developed by the U.S. Food and Drug Administration (FDA)) and is commercially available on solid support disks (DIFCO® BACTROL® Antibiotic Disks). To perform the assay, potato-dextrose plates)(DIFCO® were initially prepared using standard procedures. The plates were then individually inoculated with the bacteria (approximately 1.5×10^6 CFU) to be tested so as to form a confluent bacterial bed.
Inhibition of microorganisms (e.g. gastrointestinal pathogens) by Bacillus coagulans was subsequently ascertained by placing approximately 1.8×10^6 CFU of Bacillus coagulans in 10 μl of broth or buffer, directly in the center of the potato-dextrose plate with one test locus being approximately 8 mm in diameter per plate. A minimum of three test loci were used for each assay. […] The plates were then incubated for approximately about 18 hr at 30° C., at which time the zones of inhibition were measured. […]

O=CCCCC=O [glutaraldehyde]
inhibition (about 18 hr at 30° C.): excellent “inhibition” | zone of inhibition diameter (average of three tests): approximately 16.2 mm
